For data set [1], the target named is NPC1-like intracellular cholesterol transporter 1 (Rattus norvegicus, UniProt Q6T3U3). The data set can be described thus: Displacement of [3H]ezetimibe-glucuronide from NPC1L1 in Sprague-Dawley rat brush border membrane.
Data set [2] is described as follows: Half life in rat hepatocytes. Format: ADME, cell-based, Liver, Hepatocyte.
Another data set relates to Hamster. The data set can be described thus: Inhibition of cholesterol absorption in chow fed hamster at 3 mg/kg, po. The data set is classed as functional. The settings on record: Cricetinae.
Data set [3] can be described thus: Metabolic stability assessed as half life in rat liver microsomes. The data set is classed as ADME, Microsome.

SMILES strings stand for the structures.

Sequence of NPC1-like intracellular cholesterol transporter 1 (Q6T3U3 21-1331 limits assumed): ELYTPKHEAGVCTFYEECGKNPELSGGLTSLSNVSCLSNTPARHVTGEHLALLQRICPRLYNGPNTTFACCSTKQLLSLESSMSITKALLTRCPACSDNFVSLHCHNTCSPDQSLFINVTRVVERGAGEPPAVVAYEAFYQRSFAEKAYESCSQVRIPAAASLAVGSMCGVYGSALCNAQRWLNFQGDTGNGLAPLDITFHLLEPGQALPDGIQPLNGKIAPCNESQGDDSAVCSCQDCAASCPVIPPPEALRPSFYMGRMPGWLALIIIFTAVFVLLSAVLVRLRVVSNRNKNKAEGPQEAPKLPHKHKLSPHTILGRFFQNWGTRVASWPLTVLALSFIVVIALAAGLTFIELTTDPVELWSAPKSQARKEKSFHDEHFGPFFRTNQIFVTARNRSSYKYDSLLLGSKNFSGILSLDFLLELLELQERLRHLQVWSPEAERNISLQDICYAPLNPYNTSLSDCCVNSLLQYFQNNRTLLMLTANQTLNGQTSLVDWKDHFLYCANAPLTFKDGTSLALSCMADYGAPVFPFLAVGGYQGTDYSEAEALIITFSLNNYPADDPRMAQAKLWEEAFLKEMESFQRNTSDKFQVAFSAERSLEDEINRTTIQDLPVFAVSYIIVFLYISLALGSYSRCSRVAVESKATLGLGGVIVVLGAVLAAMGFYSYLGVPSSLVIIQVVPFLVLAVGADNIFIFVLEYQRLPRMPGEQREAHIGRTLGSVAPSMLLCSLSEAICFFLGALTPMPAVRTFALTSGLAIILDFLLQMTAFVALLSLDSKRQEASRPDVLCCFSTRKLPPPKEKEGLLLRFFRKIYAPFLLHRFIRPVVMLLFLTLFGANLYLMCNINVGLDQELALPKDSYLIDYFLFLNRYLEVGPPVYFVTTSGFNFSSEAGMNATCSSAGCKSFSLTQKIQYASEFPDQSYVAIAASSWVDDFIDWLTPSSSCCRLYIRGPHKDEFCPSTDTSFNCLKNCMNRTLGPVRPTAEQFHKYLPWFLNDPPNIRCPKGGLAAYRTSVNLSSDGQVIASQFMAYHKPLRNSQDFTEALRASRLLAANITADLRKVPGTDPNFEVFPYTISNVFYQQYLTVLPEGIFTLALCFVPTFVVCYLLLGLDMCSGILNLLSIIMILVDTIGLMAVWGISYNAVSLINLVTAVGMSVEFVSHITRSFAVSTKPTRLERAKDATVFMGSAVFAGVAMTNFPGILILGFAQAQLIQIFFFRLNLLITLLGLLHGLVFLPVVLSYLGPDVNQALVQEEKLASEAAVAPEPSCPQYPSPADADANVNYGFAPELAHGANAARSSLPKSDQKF

On to `COc1cccc(OC[C@@H](O)[C@H]2OC(=O)N(c3ccc(F)cc3)[C@@H]2c2ccc(O)cc2)c1`, for which, in data set [1], the Ki worked out at 15 µM.

Compound `O=C1O[C@H]([C@H](O)CCc2ccccc2)[C@@H](c2ccc(O)cc2O)N1c1ccc(F)cc1` had a half-life in data set [2] of 2.27 h. Besides, the inhibitory constant (Ki) in data set [1] was 9.2 µM.

In turn, `O=C1O[C@H]([C@H](O)CCc2ccccc2)[C@@H](c2ccc(F)cc2O)N1c1cccc(F)c1` showed an inhibition in vivo at 3 mg/kg in the data set with Hamster of 0%. Also, the affinity in data set [1] corresponds to a Ki of 19 µM.

In turn, `O=C1O[C@H](CC[C@H](O)c2ccc(F)cc2)[C@@H](c2ccc(O)cc2)N1c1ccc(F)cc1` returned an inhibition constant (Ki) in data set [1] of 9.9 µM.

Turning to `O=C1O[C@H]([C@H](O)CCc2ccccc2)[C@@H](c2cccc(O)c2)N1c1ccc(F)cc1`, the affinity in data set [1], expressed as Ki, was 33 µM.

In data set [1], `O=C1O[C@H]([C@H](O)CCc2ccccc2)[C@@H](c2ccc(O)cc2)N1c1ccc(F)cc1` yielded a Ki greater than 50 µM.

`O=C1O[C@H]([C@H](O)CNc2ccc(F)cc2)[C@@H](c2ccc(O)cc2)N1c1ccc(F)cc1`: the inhibition constant (Ki) in data set [1] amounted to 19 µM.

With `COc1ccc([C@@H]2[C@@H]([C@H](O)COc3ccc(F)cc3)OC(=O)N2c2cccc(F)c2)c(O)c1`, testing at 3 mg/kg in the data set with Hamster gave an inhibition in vivo of 0%. For the same compound, the Ki in data set [1] is 28 µM.

Take `COc1ccc([C@@H]2[C@@H](CCCc3ccccc3)OC(=O)N2c2ccc(OC)cc2)cc1`: in data set [1], the Ki was greater than 50 µM.

The compound `COc1ccc(O)c([C@@H]2[C@@H]([C@H](O)CCc3ccccc3)OC(=O)N2c2cccc(F)c2)c1` returned an inhibition constant (Ki) in data set [1] greater than 50 µM.

In data set [1], `CN(Cc1ccc(F)cc1)C(=O)[C@H]1OC(=O)N(c2ccc(F)cc2)[C@@H]1c1ccc(O)cc1` gave a Ki of 14 µM.

The compound `COc1cccc(CN(C)C(=O)[C@H]2OC(=O)N(c3ccc(F)cc3)[C@@H]2c2ccc(O)cc2)c1` had a Ki in data set [1] of 11 µM.

For the compound `COc1cccc(OC[C@@H](O)[C@H]2OC(=O)N(c3cccc(F)c3)[C@@H]2c2ccc(OC)cc2O)c1`, the inhibitory constant (Ki) in data set [1] came out at 8.7 µM.

Take `O=C1[C@H](CC[C@H](O)c2ccc(F)cc2)[C@@H](c2ccc(O)cc2)N1c1ccc(F)cc1` [EZETIMIBE]: the half-life in data set [2] was found to be 0.717 h; in data set [3], 0.158 h. For the same compound, affinity in data set [1] was put at a Ki of 0.2 µM.

Consider `Cc1ccc([C@@H]2[C@@H]([C@H](O)CCc3ccccc3)OC(=O)N2c2cccc(F)c2)c(O)c1`, for which, in data set [1], the Ki came out at 16 µM.

In the case of `O=C(NCc1ccc(F)cc1)[C@H]1OC(=O)N(c2ccc(F)cc2)[C@@H]1c1ccc(O)cc1`, the affinity in data set [1], expressed as Ki, was 30 µM.

In the case of `O=C(O)[C@H]1O[C@@H](Oc2ccc([C@@H]3[C@@H]([C@H](O)CCc4ccccc4)OC(=O)N3c3ccc(F)cc3)cc2)[C@H](O)[C@@H](O)[C@@H]1O`, the Ki in data set [1] was greater than 50 µM.

`COc1ccc([C@@H]2[C@@H]([C@H](O)CCc3ccccc3)OC(=O)N2c2cccc(F)c2)c(O)c1` yielded a Ki in data set [1] of 2.3 µM.

Take `COc1ccc([C@@H]2[C@@H](C(=O)N3CCc4ccccc4C3)OC(=O)N2c2cccc(F)c2)c(O)c1`: the affinity in data set [1], expressed as Ki, was 3.6 µM.

In data set [1], `O=C1O[C@H]([C@H](O)CCc2ccccc2)[C@@H](c2ccc(O)cc2)N1c1ccccc1F` returned a Ki greater than 50 µM.

In turn, `COc1cccc([C@@H]2[C@@H]([C@H](O)CCc3ccccc3)OC(=O)N2c2cccc(F)c2)c1O` returned an inhibition constant Ki in data set [1] of 5.7 µM.

Take `COc1ccc([C@@H]2[C@@H]([C@H](O)CCc3ccccc3)OC(=O)N2c2ccc(F)cc2)c(OC)c1`: the Ki in data set [1] was greater than 50 µM.

Turning to `O=C1O[C@H]([C@H](O)COc2ccc(F)cc2)[C@@H](c2ccc(O)cc2)N1c1ccc(F)cc1`, the half-life in data set [2] worked out at 1.12 h. In data set [1], this compound came in with an inhibitory constant (Ki) of 28 µM.

In data set [2], `COc1ccc([C@@H]2[C@@H]([C@H](O)CCc3ccccc3)OC(=O)N2c2ccc(F)cc2)c(O)c1` yielded a half-life of 4.15 h. Moreover, in data set [1], the Ki was found to be 4.8 µM.

`O=C1O[C@H]([C@H](O)CCc2ccccc2)[C@@H](c2cccc(F)c2O)N1c1cccc(F)c1` came in with an inhibition in vivo at 3 mg/kg with Hamster of 0%. This compound displayed an inhibition constant Ki in data set [1] greater than 50 µM.

Regarding `O=C1O[C@H]([C@H](O)CCc2ccccc2)[C@@H](c2cc(F)ccc2O)N1c1cccc(F)c1`, the inhibition in vivo at 3 mg/kg with Hamster was 0%. The compound also displayed a Ki in data set [1] of 18 µM.

With `COc1ccc([C@@H]2[C@@H](C(=O)N(C)Cc3ccc(F)cc3)OC(=O)N2c2cccc(F)c2)c(O)c1`, the inhibition in vivo at 3 mg/kg with Hamster is 0%. For the same compound, the Ki in data set [1] was found to be 1.4 µM.

As to `COc1ccc(OC[C@@H](O)[C@H]2OC(=O)N(c3ccc(F)cc3)[C@@H]2c2ccc(O)cc2)cc1`, the inhibition constant (Ki) in data set [1] is greater than 50 µM.

The compound `O=C(NC[C@H]1OC(=O)N(c2ccc(F)cc2)[C@@H]1c1ccc(O)cc1)c1ccc(F)cc1` returned an inhibitory constant (Ki) in data set [1] greater than 50 µM.

`O=C(O)[C@H]1O[C@@H](Oc2ccc([C@@H]3[C@@H](CC[C@H](O)c4ccc(F)cc4)C(=O)N3c3ccc(F)cc3)cc2)[C@H](O)[C@@H](O)[C@@H]1O` had a Ki in data set [1] of 0.18 µM. Also, the half-life in data set [3] was greater than 1 h.

`O=C1O[C@H]([C@H](O)CCc2ccccc2)[C@@H](c2ccccc2O)N1c1ccc(F)cc1`: testing at 3 mg/kg in the data set with Hamster gave an inhibition in vivo of 0%. Further, the Ki in data set [1] was determined as 12 µM.

For `O=C1O[C@H]([C@H](O)COc2ccc(Cl)cc2)[C@@H](c2ccc(O)cc2)N1c1ccc(F)cc1`, the Ki in data set [1] was 49 µM.

In data set [2], `O=C1O[C@H]([C@H](O)CCc2ccccc2)[C@@H](c2ccc(O)cc2)N1c1cccc(F)c1` yielded a half-life of 1.18 h. The affinity in data set [1] corresponds to a Ki of 11 µM.

The values are drawn from ChEMBL document CHEMBL1141587, “Substituted oxazolidinones as novel NPC1L1 ligands for the inhibition of cholesterol absorption” (Bioorg Med Chem Lett, 2008).
